Test results taken from patent US20260356830A1, “COMPOUNDS FOR MODULATING RET PROTEIN” (Bristol-Myers Squibb Company, priority 2022, published 2026).

Target: T1, CCDC6-RET (Homo sapiens, UniProt P07949+Q16204+Q96SW2)
T1 construct: CCDC6 (natural N-terminal fusion partner, UniProt Q16204); endogenous in cells; host or cells: TPC-1 (parental, papillary thyroid carcinoma)
Assay: Cellular RET degradation, AlphaLISA, TPC-1 cell line
Assay type: cell-based
Details: for Dmax: TPC1, human, 24 h, read-out: Cell Density TPC-1/CCDC6-RET Ymax %; for DC50: read-out: Cell Density TPC-1/CCDC6-RET DC50, half-maximal degradation concentration, TPC-1 (CCDC6-RET), 24 hrs
Procedure: Cellular RET degradation compound potency was determined using the bead-based luminescent amplification assay-AlphaLISA Surefire Ultra Detection Kit (Perkin-Elmer). The CCDC6-RET fusion expressing papillary thyroid carcinoma (TPC-1) cell line was selected for screening of potential degraders: Parental (TPC-1/CCDC6-RET). Cells were plated in 384 well culture plates (Greiner Bio-One) at 10,000 cells/well in 50 ul/well DMEM (Fisher Scientific) with 2% FBS serum (Gibco). […] Low normalization wells were media only and high normalization wells were cells treated with DMSO only. Treated cell plates were placed in an incubator at 37 °C and 5% CO2 for 24 hrs. At 24 hrs, cell media was removed by a FELIX automated liquid hander (Analytik Jena) and 25 ul of cell lysis buffer (provided in AlphaLisa kit) was added to each well. […] cell lysate were transferred into a 384-well microplate (Perkin Elmer) before addition of 2.5 ul AlphaLISA Acceptor Bead mix. The plates were sealed and kept at room temperature for 1 hr before addition of donor bead mixture. Donor bead addition was performed in the dark and incubated for >1 hr before AlphaLISA luminescence was measured on an Envision plate reader with an Alphascreen aperture at RT (excitation 680 nm, emission 615 nm). RET protein abundance (and therefore degradation) directly corresponds to luminescence intensity.
Intensities were normalized relative to the average values from 16 wells containing media alone (blank-low) and 16 wells containing cells +DMSO (high). % Degradation for each well was determined using the standard equation, where
DC50 (IC50) values for each compound tested are calculated by analyzing plots of % degradation versus compound concentration, and fitting to the standard 4-parameter logistic curve where,
DC50 values are calculated according to the relationship,
Compound replicates were performed in independent assays. Maximum degradation (YMax) was defined as the maximal % degradation value from the 4-parameter logistic equation, as previously described.

T1 sequence (Q16204+P07949 fused): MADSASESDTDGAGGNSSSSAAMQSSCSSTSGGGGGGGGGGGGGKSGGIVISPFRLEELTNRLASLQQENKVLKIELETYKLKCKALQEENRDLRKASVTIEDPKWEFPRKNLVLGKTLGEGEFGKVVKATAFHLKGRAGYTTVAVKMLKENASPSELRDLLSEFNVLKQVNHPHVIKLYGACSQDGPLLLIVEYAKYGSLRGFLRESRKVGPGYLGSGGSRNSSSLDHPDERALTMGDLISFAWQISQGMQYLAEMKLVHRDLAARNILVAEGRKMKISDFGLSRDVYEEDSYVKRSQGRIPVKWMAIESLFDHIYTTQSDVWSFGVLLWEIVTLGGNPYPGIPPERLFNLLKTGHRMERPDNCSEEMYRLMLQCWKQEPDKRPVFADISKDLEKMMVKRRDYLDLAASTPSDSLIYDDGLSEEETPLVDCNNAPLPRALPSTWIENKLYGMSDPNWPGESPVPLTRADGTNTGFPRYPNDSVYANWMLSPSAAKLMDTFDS
T1 sequence (Q96SW2 whole entry, the tested form may be a part): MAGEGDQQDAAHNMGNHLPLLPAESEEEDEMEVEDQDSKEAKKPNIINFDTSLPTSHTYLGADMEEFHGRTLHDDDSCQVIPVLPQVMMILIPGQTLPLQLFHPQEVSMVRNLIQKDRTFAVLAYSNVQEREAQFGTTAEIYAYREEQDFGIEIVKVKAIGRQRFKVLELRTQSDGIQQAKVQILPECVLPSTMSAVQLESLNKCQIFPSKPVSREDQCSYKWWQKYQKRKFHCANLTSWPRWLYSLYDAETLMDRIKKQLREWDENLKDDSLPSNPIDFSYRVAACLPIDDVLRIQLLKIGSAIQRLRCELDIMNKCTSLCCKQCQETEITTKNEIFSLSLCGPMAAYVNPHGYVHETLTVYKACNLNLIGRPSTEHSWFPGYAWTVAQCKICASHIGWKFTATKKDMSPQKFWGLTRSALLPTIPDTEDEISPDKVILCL
T1 sequence (Q16531 whole entry partner, the tested form may be a part): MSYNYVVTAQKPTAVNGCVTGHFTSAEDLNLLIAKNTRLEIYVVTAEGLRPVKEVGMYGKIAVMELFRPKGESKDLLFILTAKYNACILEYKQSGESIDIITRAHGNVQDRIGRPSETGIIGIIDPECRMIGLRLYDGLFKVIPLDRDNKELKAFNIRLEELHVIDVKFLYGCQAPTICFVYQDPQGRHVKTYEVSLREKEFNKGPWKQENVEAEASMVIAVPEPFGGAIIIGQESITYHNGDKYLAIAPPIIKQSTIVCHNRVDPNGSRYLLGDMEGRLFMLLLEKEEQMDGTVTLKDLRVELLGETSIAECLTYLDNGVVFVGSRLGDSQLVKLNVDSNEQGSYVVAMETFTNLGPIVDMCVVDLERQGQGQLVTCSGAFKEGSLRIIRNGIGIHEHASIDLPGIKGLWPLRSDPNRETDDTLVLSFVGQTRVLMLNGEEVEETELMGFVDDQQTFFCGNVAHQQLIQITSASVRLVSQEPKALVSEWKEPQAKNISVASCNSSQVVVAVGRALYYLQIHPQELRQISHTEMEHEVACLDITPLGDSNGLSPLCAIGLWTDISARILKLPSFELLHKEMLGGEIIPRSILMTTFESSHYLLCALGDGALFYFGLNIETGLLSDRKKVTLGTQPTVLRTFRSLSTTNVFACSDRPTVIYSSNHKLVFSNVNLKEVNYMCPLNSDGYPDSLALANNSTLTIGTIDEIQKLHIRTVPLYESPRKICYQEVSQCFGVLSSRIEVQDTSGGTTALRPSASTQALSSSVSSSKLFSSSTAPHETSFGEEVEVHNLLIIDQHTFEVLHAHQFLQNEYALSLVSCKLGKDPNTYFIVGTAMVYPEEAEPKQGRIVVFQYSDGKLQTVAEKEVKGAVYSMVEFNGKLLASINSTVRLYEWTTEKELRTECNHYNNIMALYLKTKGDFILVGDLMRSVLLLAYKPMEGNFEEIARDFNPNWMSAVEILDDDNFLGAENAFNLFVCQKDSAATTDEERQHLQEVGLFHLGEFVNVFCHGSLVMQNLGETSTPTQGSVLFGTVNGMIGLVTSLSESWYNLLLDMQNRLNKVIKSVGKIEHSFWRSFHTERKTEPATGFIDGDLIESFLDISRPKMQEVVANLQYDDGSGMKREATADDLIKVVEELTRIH

Dmax | DC50 | SMILES
> 90% | < 2 nM | CCOc1cc(-c2ccc(N3CCC(CN4CCN(C(=O)C5CC6(CC(C(=O)Nc7ccc8c(N9CCC(=O)NC9=O)nn(C)c8c7)C6)C5)CC4)(NC(=O)c4cc(F)ccc4F)CC3)nc2)c2c(C#N)cnn2c1 (stereo not shown) [Example 84, 6-(4-{[1-(5-{3-cyano-6-ethoxypyrazolo[1,5-a]pyridin-4-yl}pyridin-2-yl)-4-(2,5-difluorobenzamido)piperidin-4-yl]methyl}piperazine-1-carbonyl)-N-[3-(2,4-dioxo-1,3-diazinan-1-yl)-1-methyl-1H-indazol-6-yl]spiro[3.3]heptane-2-carboxamide]
60 to 90% | 2 to 10 nM | CCOc1cc(-c2ccc(N3CCC(CN4CCN(C5CN(C(=O)COc6ccc7c(c6)CN(C6CCC(=O)NC6=O)C7=O)C5)CC4)(NC(=O)c4cc(F)ccc4F)CC3)nc2)c2c(C#N)cnn2c1 (stereo not shown) [Example 65, N-[1-(5-{3-cyano-6-ethoxypyrazolo[1,5-a]pyridin-4-yl}pyridin-2-yl)-4-({4-[1-(2-{[2-(2,6-dioxopiperidin-3-yl)-1-oxo-2,3-dihydro-1H-isoindol-5-yl]oxy}acetyl)azetidin-3-yl]piperazin-1-yl}methyl)piperidin-4-yl]-2,5-difluorobenzamide]
> 90% | 2 to 10 nM | CCOc1cc(-c2ccc(N3CCC(CN4CCN(C(=O)CCCCCCN5CCC(c6ccc7c(c6)C(=O)N(C6CCC(=O)NC6=O)C7)CC5)CC4)(NC(=O)c4cc(F)ccc4F)CC3)nc2)c2c(C#N)cnn2c1 (stereo not shown) [Example 19, N-[1-(5-{3-cyano-6-ethoxypyrazolo[1,5-a]pyridin-4-yl}pyridin-2-yl)-4-{[4-(7-{4-[2-(2,6-dioxopiperidin-3-yl)-3-oxo-2,3-dihydro-1H-isoindol-5-yl]piperidin-1-yl}heptanoyl)piperazin-1-yl]methyl}piperidin-4-yl]-2,5-difluorobenzamide]
> 90% | < 2 nM | CCOc1cc(-c2ccc(N3CCC(CN4CCN(C5CN(C(=O)c6ccc7c(N8CCC(=O)NC8=O)nn(C)c7c6)C5)CC4)(NC(=O)c4cc(F)ccc4F)CC3)nc2)c2c(C#N)cnn2c1 [Example 64, N-[1-(5-{3-cyano-6-ethoxypyrazolo[1,5-a]pyridin-4-yl}pyridin-2-yl)-4-[(4-{1-[3-(2,4-dioxo-1,3-diazinan-1-yl)-1-methyl-1H-indazole-6-carbonyl]azetidin-3-yl}piperazin-1-yl)methyl]piperidin-4-yl]-2,5-difluorobenzamide]
> 90% | 2 to 10 nM | CCOc1cc(-c2ccc(N3CCC(CN4CCN(C(=O)CCCCN5CCN(c6ccc7c(c6)CN(C6CCC(=O)NC6=O)C7=O)CC5)CC4)(NC(=O)c4cc(F)ccc4F)CC3)nc2)c2c(C#N)cnn2c1 (stereo not shown) [Example 5, N-(1-(5-(3-cyano-6-ethoxypyrazolo[1,5-a]pyridin-4-yl)pyridin-2-yl)-4-((4-(5-(4-(2-(2,6-dioxopiperidin-3-yl)-1-oxoisoindolin-5-yl)piperazin-1-yl)pentanoyl)piperazin-1-yl)methyl)piperidin-4-yl)-2,5-difluorobenzamide]
> 90% | 10 to 100 nM | CCOc1cc(-c2ccc(N3CCC(CN4CCN(C(=O)CCCCCCN5CCN(c6ccc7c(c6)CN(C6CCC(=O)NC6=O)C7=O)CC5)CC4)CC3)nc2)c2c(C#N)cnn2c1 (stereo not shown) [Example 125, 4-[6-(4-{[4-(7-{4-[2-(2,6-dioxopiperidin-3-yl)-1-oxo-2,3-dihydro-1H-isoindol-5-yl]piperazin-1-yl}heptanoyl)piperazin-1-yl]methyl}piperidin-1-yl)pyridin-3-yl]-6-ethoxypyrazolo[1,5-a]pyridine-3-carbonitrile]
60 to 90% | 2 to 10 nM | CCOc1cc(-c2ccc(N3CCC(CN4CCN(C5CN(C(=O)Cc6ccc7c(c6)CN(C6CCC(=O)NC6=O)C7=O)C5)CC4)(NC(=O)c4cc(F)ccc4F)CC3)nc2)c2c(C#N)cnn2c1 (stereo not shown) [Example 62, N-[1-(5-{3-cyano-6-ethoxypyrazolo[1,5-a]pyridin-4-yl}pyridin-2-yl)-4-{[4-(1-{2-[2-(2,6-dioxopiperidin-3-yl)-1-oxo-2,3-dihydro-1H-isoindol-5-yl]acetyl}azetidin-3-yl)piperazin-1-yl]methyl}piperidin-4-yl]-2,5-difluorobenzamide]
> 90% | 2 to 10 nM | CCOc1cc(-c2ccc(N3CCC(CN4CCN(CCOCCC(=O)N5CCN(c6ccc7c(c6)CN(C6CCC(=O)NC6=O)C7=O)CC5)CC4)(NC(=O)c4cc(F)ccc4F)CC3)nc2)c2c(C#N)cnn2c1 (stereo not shown) [Example 100, N-[1-(5-{3-cyano-6-ethoxypyrazolo[1,5-a]pyridin-4-yl}pyridin-2-yl)-4-({4-[2-(3-{4-[2-(2,6-dioxopiperidin-3-yl)-1-oxo-2,3-dihydro-1H-isoindol-5-yl]piperazin-1-yl}-3-oxopropoxy)ethyl]piperazin-1-yl}methyl)piperidin-4-yl]-2,5-difluorobenzamide]
60 to 90% | < 2 nM | CCOc1cc(-c2ccc(N3CCC(CN4CCN(C(=O)CCN5CCN(c6ccc7c(N8CCC(=O)NC8=O)nn(C)c7c6)CC5)CC4)(NC(=O)c4cc(F)ccc4F)CC3)nc2)c2c(C#N)cnn2c1 [Example 39, N-(1-(5-(3-cyano-6-ethoxypyrazolo[1,5-a]pyridin-4-yl)pyridin-2-yl)-4-((4-(3-(4-(3-(2,4-dioxotetrahydropyrimidin-1(2H)-yl)-1-methyl-1H-indazol-6-yl)piperazin-1-yl)propanoyl)piperazin-1-yl)methyl)piperidin-4-yl)-2,5-difluorobenzamide]
60 to 90% | 10 to 100 nM | CCOc1cc(-c2ccc(N3CCC(CN4CCN(C(=O)CCN5CCC(c6ccc7c(c6)C(=O)N(C6CCC(=O)NC6=O)C7)CC5)CC4)(C(=O)NC(C)C)CC3)nc2)c2c(C#N)cnn2c1 (stereo not shown) [Example 76, 1-(5-(3-cyano-6-ethoxypyrazolo[1,5-a]pyridin-4-yl)pyridin-2-yl)-4-((4-(3-(4-(2-(2,6-dioxopiperidin-3-yl)-3-oxoisoindolin-5-yl)piperidin-1-yl)propanoyl)piperazin-1-yl)methyl)-N-isopropylpiperidine-4-carboxamide]
60 to 90% | 10 to 100 nM | CCOc1cc(-c2ccc(N3CCC(CN4CCN(C(=O)CCCCCCNc5cccc(NC6CCC(=O)NC6=O)c5)CC4)(NC(=O)c4cc(F)ccc4F)CC3)nc2)c2c(C#N)cnn2c1 (stereo not shown) [Example 22, N-[1-(5-{3-cyano-6-ethoxypyrazolo[1,5-a]pyridin-4-yl}pyridin-2-yl)-4-({4-[7-({3-[(2,6-dioxopiperidin-3-yl)amino]phenyl}amino)heptanoyl]piperazin-1-yl}methyl)piperidin-4-yl]-2,5-difluorobenzamide]
> 90% | 2 to 10 nM | CCOc1cc(-c2ccc(N3CCC(CN4CCC5(CCC(CC(=O)N6CCC(c7ccc8c(c7)CN(C7CCC(=O)NC7=O)C8=O)CC6)CC5)CC4)(NC(=O)c4cc(F)ccc4F)CC3)nc2)c2c(C#N)cnn2c1 (stereo not shown) [Example 122, N-[1-(5-{3-cyano-6-ethoxypyrazolo[1,5-a]pyridin-4-yl}pyridin-2-yl)-4-{[9-(2-{4-[2-(2,6-dioxopiperidin-3-yl)-1-oxo-2,3-dihydro-1H-isoindol-5-yl]piperidin-1-yl}-2-oxoethyl)-3-azaspiro[5.5]undecan-3-yl]methyl}piperidin-4-yl]-2,5-difluorobenzamide]
60 to 90% | 10 to 100 nM | CCOc1cc(-c2ccc(N3CCC(Cc4ccccc4)(NC(=O)N4CCN(C(=O)CCN5CCC(c6ccc7c(c6)C(=O)N(C6CCC(=O)NC6=O)C7)CC5)CC4)CC3)nc2)c2c(C#N)cnn2c1 (stereo not shown) [Example 51, N-[4-benzyl-1-[5-(3-cyano-6-ethoxy-pyrazolo[1,5-a]pyridin-4-yl)-2-pyridyl]-4-piperidyl]-4-[3-[4-[2-(2,6-dioxo-3-piperidyl)-3-oxo-isoindolin-5-yl]-1-piperidyl]propanoyl]piperazine-1-carboxamide]
60 to 90% | 10 to 100 nM | CCOc1cc(-c2ccc(N3CCC(CN4CCN(CCOCCOCCC(=O)Nc5ccc6c(N7CCC(=O)NC7=O)nn(C)c6c5)CC4)(NC(=O)c4cc(F)ccc4F)CC3)nc2)c2c(C#N)cnn2c1 [Example 108, N-[1-(5-{3-cyano-6-ethoxypyrazolo[1,5-a]pyridin-4-yl}pyridin-2-yl)-4-[(4-{2-[2-(2-{[3-(2,4-dioxo-1,3-diazinan-1-yl)-1-methyl-1H-indazol-6-yl]carbamoyl}ethoxy)ethoxy]ethyl}piperazin-1-yl)methyl]piperidin-4-yl]-2,5-difluorobenzamide]
